Laboratory results as given in US20190119282A1, “IMIDAZOPYRIDAZINES USEFUL AS INHIBITORS OF THE PAR-2 SIGNALING PATHWAY” (Vertex Pharmaceuticals Incorporated, priority 2013, published 2019).

Experiments:
[1] = molecular target: T1, PAR2 (HT-29 cells, SLIGKV activation) (Homo sapiens, UniProt P55085); test: Ca FLIPR TETRA assay, ANTAGONIST mode, stimulation with 8 μM SLIGKV; type: cell-based; conditions: for IC50: HT-29 cells
T1 construct: host or cells: HT-29 cells
T1 sequence (P55085 26-397): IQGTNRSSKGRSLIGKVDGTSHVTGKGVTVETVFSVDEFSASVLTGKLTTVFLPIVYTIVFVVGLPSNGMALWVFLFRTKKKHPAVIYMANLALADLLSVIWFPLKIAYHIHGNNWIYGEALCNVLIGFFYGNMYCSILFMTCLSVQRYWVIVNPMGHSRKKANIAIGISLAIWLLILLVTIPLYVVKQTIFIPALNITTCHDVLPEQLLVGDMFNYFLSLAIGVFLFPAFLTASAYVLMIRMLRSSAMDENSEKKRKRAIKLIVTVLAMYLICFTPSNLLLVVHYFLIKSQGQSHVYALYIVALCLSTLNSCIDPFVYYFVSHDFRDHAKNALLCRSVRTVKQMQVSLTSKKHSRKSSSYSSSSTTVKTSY
Method: (§1) Example 60: Protocol for Testing PAR2 Compounds in ANTAGONIST Mode Using the Ca FLIPR^TETRA Assay (384 Well)
(§2) 23000 HT-29 cells (ATCC# HTB-38) were plated in 384-well black, transparent-flat bottom plates and incubated in 25 uL of 1% FBS/McCoy's media ON at 37° C. under an atmosphere of 5% CO2. The following day, 25 uL FLIPR calcium 5 Molecular Devices assay reagent (Cat: R-8186) was added. Plates were incubated at 37° C. and r. t. for 45 min and 15 min, respectively. Compounds dilutions were prepared in 100% DMSO using a Biomek FX and diluted 20-fold in HBSS and then 5.5 uL was added directly to the cells by the FLIPR^TETRA (10× dilution) using FLIPR Tetra Pipette tips, black, non-sterile, 384 Molecular Devices (Cat: 9000-0764).
(§3) A first read was performed to determine whether the test compounds on their own can activate Ca2+ responses.
(§4) The cells were incubated with the compounds for 30 min at r. t. and then read in ANTAGONIST mode in the same plate by stimulating with 6.2 uL of a fixed concentration of the activator: final concentrations: 8 μM SLIGKV, 1 U/mL Thrombin, 3.1 U/mL trypsin, or 0.6 μM UTP.

[2] = molecular target: T2, PAR2 (HT-29 cells, trypsin activation) (Homo sapiens, UniProt P55085); test: Ca FLIPR TETRA assay, ANTAGONIST mode, stimulation with 3.1 U/mL trypsin; type: cell-based; conditions: for Trypsin % @ 50 μM: reported prior-art compounds
T2 construct: host or cells: HT-29 cells
T2 sequence (P55085 26-397): T1 sequence (P55085 26-397)
Method: as §1, §2, §3, §4

[3] = test system: Thrombin-stimulated Ca2+ response in HT-29 cells; test: Ca FLIPR TETRA assay, ANTAGONIST mode, stimulation with 1 U/mL Thrombin; type: cell-based, human; conditions: Homo sapiens, HT-29 cells, stimulation with 1 U/mL Thrombin
Method: as §1, §2, §3, §4

[4] = test system: UTP-stimulated Ca2+ response in HT-29 cells; test: Ca FLIPR TETRA assay, ANTAGONIST mode, stimulation with 0.6 μM UTP; type: cell-based, human; conditions: Homo sapiens; HT-29 cells, stimulation with 0.6 μM UTP
Method: as §1, §2, §3, §4

[5] = Table 8, reported compounds of WO2005/030773, JP2003286171, JP2004170323
[6] = Table 6, HT-29 cells, 3.1 U/mL trypsin
[7] = Table 8, reported compounds of WO2005/030773, JP2003286171, JP2004170323, HT-29 cells

SMILES | IC50 [1, 5] [µM] | IC50 ([1]; Table 6, 8 μM SLIGKV) [µM] | IC50 [2, 7] [µM] | further results
CCC(=O)N1CCN(C(=O)c2cn3nc(-c4ccc(F)cc4)cc(C(F)(F)F)c3n2)CC1 [Compound I-584] | – | 22 | – | IC50 [2, 6]: 2 µM
O=C(c1cn2nc(-c3ccc(F)cc3)cc(C(F)(F)F)c2n1)N1CCN(CCn2ccnc2)CC1 [Compound I-583] | – | 23 | – | IC50 [2, 6]: > 50 µM
N#Cc1cccnc1N1CCN(C(=O)c2cn3nc(-c4ccc(F)cc4)cc(C(F)(F)F)c3n2)CC1 [Compound I-582] | – | 50 | – | IC50 [2, 6]: > 50 µM
O=C(c1cn2nc(-c3ccc(F)cc3)cc(C(F)(F)F)c2n1)N1CCCCCC1 [Compound I-7, Azepan-1-yl-[6-(4-fluorophenyl)-8-(trifluoromethyl)imidazo[1,2-b]pyridazine-2-yl]methanone] | – | – | – | IC50 ([1]; stimulation with 8 μM SLIGKV): 0.089 µM; IC50 [3]: > 50 µM; IC50 [4]: > 50 µM
CC(C)c1cc(C2CCOCC2)nn2cc(C(=O)N3CCN(C(=O)C4(O)CCC4)CC3(C)C)nc12 [Compound I-590] | – | 20 | – | IC50 [2, 6]: > 50 µM
O=C(c1cn2nc(-c3ccc(F)cc3)cc(C(F)(F)F)c2n1)N1CCN(Cc2ccccn2)CC1 [Compound I-581] | – | 50 | – | IC50 [2, 6]: 46 µM
C[C@H]1CN(C(=O)c2cn3nc(-c4ccc(F)cc4)c(C(F)(F)F)cc3n2)CCN1C(=O)OCc1ccccc1 [Compound I-580] | – | 23 | – | Trypsin % @ 50 ([2]; Table 6, @ 50 (μM), HT-29 cells, 3.1 U/mL trypsin): 48% @ 50
Cc1cc(-c2ccc(F)cc2)nn2cc(C(=O)N3CCC4(COC4)C3)nc12 [Compound I-585] | – | 27 | – | IC50 [2, 6]: 24 µM
O=C(c1cn2nc(-c3ccc(F)cc3)cc(C(F)(F)F)c2n1)N1CCCCC1c1nccs1 (stereo not drawn) [Compound I-73] | – | – | – | IC50 ([1]; stimulation with 8 μM SLIGKV): 0.74 µM; IC50 ([2]; HT-29 cells, stimulation with 3.1 U/mL trypsin): 0.92 µM; IC50 [3]: 1.7 µM
CC(C)(C)c1cc(-c2ccc(F)cc2)nn2cc(C(=O)N3CCC(O)CC3(C)C)nc12 (stereo not drawn) [Compound I-484, (8-(tert-butyl)-6-(4-fluorophenyl)imidazo[1,2-b]pyridazin-2-yl)(4-hydroxy-2,2-dimethylpiperidin-1-yl)methanone] | – | – | – | IC50 ([1]; antagonist mode, stimulation with 8 μM SLIGKV): 0.0028 µM; IC50 ([2]; HT-29 cells, antagonist mode, stimulation with 3.1 U/mL trypsin): 0.0096 µM; IC50 ([3]; antagonist mode): > 1 µM

Further lines, with some results ahead:

IC50 [1, 5] [µM] | IC50 ([1]; Table 6, 8 μM SLIGKV) [µM] | IC50 [2, 7] [µM] | SMILES | further results
0.48 | – | – | O=C(O)C1CCCCN(C(=O)c2cc3nc(-c4ccc(F)cc4)cc(C(F)(F)F)n3n2)C1 (stereo not drawn) [Compound P-610, reference compound] | Trypsin % @ 50 μM ([2]; Table 8): 63% @ 50 μM
0.14 | – | 17 | CCOC(=O)C1CCN(C(=O)c2cc3nc(-c4ccccc4)cc(C(F)(F)F)n3n2)CC1 [Compound P-603, reference compound] | –
> 50 | – | > 50 | O=C(c1cc2nc(-c3ccccc3)cc(C(F)(F)F)n2n1)N1CCC(c2ccc(F)cc2)C1 (stereo not drawn) [Compound P-607, reference compound] | –
1.73 | – | 19.2 | CC1CCCCN1C(=O)c1cc2nc(-c3ccccc3)cc(C(F)(F)F)n2n1 (stereo not drawn) [Compound P-595, reference compound] | –
0.057 | – | 0.13 | CCOC(=O)C1CCCCN1C(=O)c1cc2nc(-c3ccc(Cl)cc3)cc(C(F)(F)F)n2n1 (stereo not drawn) [Compound P-592, reference compound] | –
23 | – | 33 | O=C(c1nn2c(C(F)(F)F)cc(-c3ccccc3)nc2c1Br)N1CCC(c2ccc(F)cc2)C1 (stereo not drawn) [Compound P-608, reference compound] | –
0.64 | – | 3.85 | CCOC(=O)C1CCCCN1C(=O)c1cc2nc(-c3ccccc3)cc(C(F)(F)F)n2n1 (stereo not drawn) [Compound P-604, reference compound] | –
– | – | > 50 | O=C(c1cc2nc(-c3ccc(Cl)cc3)cc(C(F)(F)F)n2n1)N1CCCCC1 [Compound P-593, reference compound] | SLIGKV % @ 50 μM ([1]; Table 8, @ 50 μM, reported prior-art compounds): 67% @ 50 μM
31 | – | > 50 | CN(CCO)C(=O)c1cc2nc(-c3ccccc3)cc(C(F)(F)F)n2n1 [Compound P-602, reference compound] | –
0.073 | – | – | CCOC(=O)C1CCN(C(=O)c2cc3nc(-c4ccc(Cl)cc4)cc(C(F)(F)F)n3n2)CC1 [Compound P-605, reference compound] | Trypsin % @ 50 μM ([2]; Table 8): 50% @ 50 μM
37 | – | > 50 | O=C(O)C1CCCN(C(=O)c2cc3nc(-c4ccc(Cl)cc4)cc(C(F)(F)F)n3n2)C1 (stereo not drawn) [Compound P-600, reference compound] | –
